Test results reported in patent US20190133122A1, “FUNGICIDAL OR BACTERICIDAL COMPOSITION AND METHOD FOR CONTROLLING DISEASE” (Nissan Chemical Corporation, priority 2016, published 2019).
Where a name gives a salt, the structure may show the parent alone. Read-outs that look alike come from different tables or passages of the source.

Tested on: cucumber gray mold fungus (Botrytis cinerea)
Assay: Preventive test against gray mold (sprayed cucumber cotyledon, cut leaf inoculated)
Type: in vivo
Protocol: Such an agent was diluted with water to a predetermined concentration to obtain a test solution. Then, cucumber (variety: Sagami-hanjiro) was planted in a plastic pot of 90 cm^3, and in the cotyledon stage, 5 ml of the obtained test solution, was sprayed by a spray gun and air-dried. Thereafter, the treated leaf was cut off and placed in a plastic container which filled approximately 0.5 cm in depth water. A suspension of conidia of cucumber gray mold fungus (Botrytis cinerea) and a dissolved PDA culture medium were mixed at a ratio of 1:1 (mass ratio), and the mixture was dropped to inoculate the treated leaf with 30 μl. After the inoculation, the plastic container was sealed and left at 20° C. for 3 days, the ratio of the formed lesion occupying the inoculated leaf was measured, and the preventive value (observed value) was calculated in accordance with the following calculation formula.
Preventive value=[1−(treated plot lesion area ratio/untreated plot lesion area ratio)]×100
Further, from the preventive value at each agent concentration, a theoretical value expected by treatment of the mixing (theoretical value) was calculated by using the Colby method (Colby S. R. 1967, Weeds 15, 20-22), in order to analyze synergy. The calculation method is as follows.
X: preventive value of A agent (test solution obtained from active ingredient A) at x concentration
Y: preventive value of B agent (test solution obtained from active ingredient B) at y concentration
E: theoretical value expected by treatment of the mixture of A agent and B agent.
In the observed value and the theoretical value, calculated as the above, the obtained result is analyzed to be synergy if the observed value is larger than the theoretical value, to be antagonism if the theoretical value is larger than the observed value, and to be an additive effect if the observed value and the theoretical value are the same.

[1] = 100 ppm, active ingredient B alone, cucumber leaf, 20° C., 3 days after inoculation
[2] = Botrytis cinerea, 72 h, read-out: Preventive value
[3] = Botrytis cinerea, 72 h, 100 ppm, active ingredient B alone, cucumber leaf, 20° C., 3 days after inoculation, read-out: Preventive value
[4] = Botrytis cinerea, 72 h, 10 ppm, active ingredient B alone, cucumber leaf, 20° C., 3 days after inoculation, read-out: Preventive value
[5] = 10 ppm, active ingredient B alone, cucumber leaf, 20° C., 3 days after inoculation
[6] = 1 ppm, active ingredient B alone, cucumber leaf, 20° C., 3 days after inoculation

Compound | Preventive value [1] | pest or weed control at 100 ppm [3] [%] | further results
COCC(=O)N(c1c(C)cccc1C)[C@H](C)C(=O)OC [A05, metalaxyl-M] | 5 |  | 
COCC(=O)N(c1c(C)cccc1C)N1CCOC1=O [A07, oxadixyl] |  |  | pest or weed control at 100 ppm [2]: 10%
Cc1cc(O)no1 [A10, hymexazol] |  | 10 | 
COC(=O)Nc1nc2ccccc2[nH]1 [B02, carbendazim] |  |  | pest or weed control at 10 ppm [4]: 85%
CCC(C)(NC(=O)c1cc(Cl)c(C)c(Cl)c1)C(=O)CCl (stereo not shown) [B08, zoxamide] |  | 15 | 
CO/C=C(/C(=O)OC)c1ccccc1CO/N=C(C)/C=C/c1ccc(Cl)cc1 [C22, enoxastrobin] | 85 |  | 
CNC(=O)/C(=N/OC)c1ccccc1CO/N=C(C)/C=C/c1c(Cl)cccc1Cl [C25, fenaminstrobin] |  |  | Preventive value [5]: 55
COC(=O)N(OC)c1ccccc1COc1nc(Cl)c(Cl)cc1Cl [C38, triclopyricarb] | 69 |  | 
Cc1ccc(-c2c(Cl)nc(C#N)n2S(=O)(=O)N(C)C)cc1 [C41, cyazofamid] |  | 10 | 
Cc1cccc(-n2nnn(C)c2=O)c1COc1ccn(-c2ccc(Cl)cc2)n1 [C51, 1-(2-[([1-(4-chlorophenyl)-1H-pyrazol-3-yl]oxy)-methyl]-3-methylphenyl)-4-methyl-1,4-dihydro-5H-tetrazol-5-one] |  |  | pest or weed control at 100 ppm [2]: 48%
CON(C(=O)c1cn(C)nc1C(F)F)C(C)Cc1c(Cl)cc(Cl)cc1Cl (stereo not shown) [Compound No. C49, pydiflumetofen] |  |  | Preventive value [6]: 45
O=C(Nc1ccccc1-c1ccc(F)c(F)c1)c1nccnc1C(F)(F)F [Compound No. C50, pyraziflumid] |  |  | Preventive value [6]: 70
C=CCSC(=O)n1c(N)c(-c2ccccc2C)c(=O)n1C(C)C [Compound No. H50, fenpyrazamine] |  |  | Preventive value (5 ppm, active ingredient B alone, cucumber leaf, 20° C., 3 days after inoculation): 56
C[C@H]1O[C@H](O[C@H]2[C@H](O)[C@@H](O)[C@@H](O)[C@H](O)[C@@H]2O)[C@@H](N)C[C@@H]1NC(=N)C(=O)O [D05, kasugamycin] | 28 |  | 
[H]/N=C(/N)N[C@H]1[C@H](O)[C@@H](O)[C@H](O[C@@H]2O[C@@H](C)[C@](O)(C=O)[C@H]2O[C@@H]2O[C@@H](CO)[C@H](O)[C@@H](O)[C@@H]2NC)[C@@H](N/C(N)=N\[H])[C@@H]1O [D06, streptomycin] |  | 13 | 
CCCOC(=O)NCCCN(C)C [G12, propamocarb hydrochloride] |  | 15 | 
Clc1ccc(CSC(Cn2cncn2)=Nc2ccc(Cl)cc2Cl)cc1 [H21, imibenconazole] |  |  | pest or weed control at 10 ppm [2]: 20%
CCCC1COC(Cn2cncn2)(c2ccc(Cl)cc2Cl)O1 (stereo not shown) [H30, propiconazole] |  | 38 | 
CN1OC(c2ccc(Cl)cc2)CC1(C)c1cccnc1 (stereo not shown) [H33, pyrisoxazole] | 9 |  | 

Compound | Preventive value [1] | pest or weed control at 100 ppm [3] [%] | further results
CC(C)(C)C(=O)C(Oc1ccc(Cl)cc1)n1cncn1 (stereo not shown) [H37, triadimefon] |  | 38 | 
CCCOC/C(=N\c1ccc(Cl)cc1C(F)(F)F)n1ccnc1 [H39, triflumizole] |  | 10 | 
CC(O)(Cn1cncn1)c1ccc(Oc2ccc(Cl)cc2)cc1C(F)(F)F (stereo not shown) [H51, mefentrifluconazole] |  |  | Preventive value [5]: 53
OCC1=C[C@H](N[C@H]2C[C@H](CO)[C@@H](O[C@@H]3O[C@H](CO)[C@@H](O)[C@H](O)[C@H]3O)[C@H](O)[C@H]2O)[C@H](O)[C@@H](O)[C@@H]1O [I01, validamycin] |  | 10 | 
COc1ccc(C(=CC(=O)N2CCOCC2)c2ccc(Cl)cc2)cc1OC [I05, dimethomorph] |  | 18 | 
C#CCOc1ccc(CCNC(=O)C(OCC#C)c2ccc(Cl)cc2)cc1OC (stereo not shown) [I08, mandipropamid] | 10 |  | 
[Cl-].[Cu+2].[Cu+2].[OH-].[OH-].[OH-] [L08, copper oxychloride] | 5 |  | 
CN(C)C(=S)SSC(=S)N(C)C [L21, thiram] |  | 28 | 
S=C(S)NCCNC(=S)S [L35, zineb] |  |  | pest or weed control at 100 ppm [2]: 23%
CCNC(=O)NC(=O)/C(C#N)=N/OC [M02, cymoxanil] |  | 13 | 
CC1(C)N=C(c2cnc3ccccc3c2)c2ccccc2C1(F)F [M20, quinofumelin] |  |  | Preventive value [5]: 60
Cc1nc2c(F)c(F)ccc2cc1Oc1cccc(F)c1C(C)(C)O [M21, 2-(2-[(7,8-difluoro-2-methylquinolin-3-yl)oxy]-6-fluoro-phenyl)propan-2-ol] |  |  | pest or weed control at 1 ppm [2]: 65%
Cn1c(=O)c2sc3c(=O)n(C)c(=O)c3sc2c1=O [M23, dipymetitrone] | 54 |  | 
CCSS(=O)(=O)CC [M34, ethylicin] | 10 |  | 
Cc1nnc(Cl)c(-c2c(F)cccc2F)c1-c1ccccc1 [M44, 3-chloro-4-(2,6-difluorophenyl)-6-methyl-5-phenyl-pyridazine] |  |  | pest or weed control at 10 ppm [4]: 28%
Bacillus subtilis D747 strain [G13] | 28 |  | 
basic copper sulfate [L10] | 18 |  | 
fosetyl-aluminium [M08] | 10 |  | 
